According to PMC11222147, “Host defence peptide plectasin targets bacterial cell wall precursor lipid II by a calcium-sensitive supramolecular mechanism” (Nature Microbiology, 2024):

Tests used:
S. simulans = assay: Bacterial permeabilization assay (DiSC2(5), SYTOX green); assay type: cell-based, Staphylococcus simulans; details: DiSC2(5) and SYTOX green, concentrations higher than the MIC, 20 °C
Experimental: Overnight cultures (37 °C, TSB) of S. simulans were diluted to OD600 = 0.1 and grown until mid-log phase (OD600 = 0.5–0.8) and collected by centrifugation (2,000 × g, room temperature, 5 min). Cell pellets were washed with buffer (10 mM Tris, 50 mM NaCl and 0.5% w/v glucose at pH = 7.2), resuspended to OD600 = 10 and stored at 4 °C until use. All assays were performed on a Cary Eclipse (FL0904M005) fluorometer. Measurements were done using bacterial suspensions at OD600 = 0.05 in the aforementioned buffer under constant stirring at 20 °C in a 4 × 10 mm quartz cuvette. About 0.2 µM 3,3′-diethylthiadicarbocyanine iodide or 0.25 µM SYTOX green was added and equilibrated for 2 min before addition of an antibiotic. For 3,3′-diethylthiadicarbocyanine iodide, we used excitation and emission wavelengths of 650 nm and 670 nm, respectively, while for SYTOX green, we used 504 nm and 523 nm. About 5 nm slits were used, and fluorescence signal was averaged every 0.3 s.

[1] = Carboxyfluorescein leakage from LUVs
Experimental: Vesicle leakage assays were conducted using LUVs filled with carboxyfluorescein. Carboxyfluorescein solutions were made by suspending ~50 mM carboxyfluorescein in H2O and adjusting the pH to ~7.2 using 10 M NaOH. The resulting solution was diluted with H2O to match the osmolarity of the outside buffer, which consisted of 10 mM Tris and 100 mM NaCl, at pH = 7.2. LUVs were prepared as described above. Non-enclosed carboxyfluorescein was removed using a Sephadex G50 column equilibrated in outside buffer. Measurements were conducted on a Cary Eclipse spectrophotometer at 20 °C under constant stirring by monitoring the fluorescence intensity at 515 nm (excitation at 492 nm, 5 nm slit width, 0.1 s averaging time). A total lipid concentration of 25 µM was used for all experiments. Fluorescence traces were normalized using the fluorescence baseline at the start as 0% and fluorescence after treatment with 0.1 vol% Triton-X100 as 100%.

With `CC[C@H](C)[C@@H]1NC(=O)[C@H](CO)NC(=O)[C@H](CCCCN)NC(=O)[C@@H]2CSSC[C@@H](C(=O)N[C@@H](Cc3ccc(O)cc3)C(=O)O)NC(=O)[C@H](CCCCN)NC(=O)[C@@H]3CSSC[C@H](NC(=O)[C@H](CCC(N)=O)NC(=O)[C@H](CCSC)NC(=O)[C@H](CC(=O)O)NC(=O)[C@H](CC(=O)O)NC(=O)[C@H](CCC(=O)O)NC(=O)[C@H](CC(=O)O)NC(=O)[C@H](Cc4c[nH]c5ccccc45)NC(=O)[C@@H]4CCCN4C(=O)CNC(=O)[C@H](CC(N)=O)NC(=O)[C@@H](NC(=O)CNC(=O)[C@H](Cc4ccccc4)NC(=O)CN)CSSC[C@H](NC(=O)[C@H](Cc4ccc(O)cc4)NC(=O)CNC(=O)CNC(=O)[C@H](CCCCN)NC(=O)[C@H](Cc4ccc(O)cc4)NC(=O)CNC(=O)[C@H](CCCCN)NC1=O)C(=O)N[C@@H](C)C(=O)N[C@@H](CCCCN)C(=O)NCC(=O)NCC(=O)N[C@@H](Cc1ccccc1)C(=O)N[C@@H](C(C)C)C(=O)N3)C(=O)N[C@@H](Cc1c[nH]cn1)C(=O)N[C@@H](CC(N)=O)C(=O)N[C@@H](Cc1c[nH]cn1)C(=O)N2` [Plectasin wt] as the compound, how does the “leakage in S. simulans membranes (in words)” value (S. simulans) read?
Its value is “does not cause leakage”.

What about the “carboxyfluorescein leakage (in words)” value ([1]; DOPC Lipid II vesicles, in the presence of calcium) of the same compound?
The value was “efficiently permeabilized”.

What about the “carboxyfluorescein leakage (in words)” value ([1]; phospholipids native to gram-positive bacteria included in the membrane, with calcium) of the same compound?
Its value is “virtually no leakage”.
